Results published in patent US9737075B2, “Synergistic benzoxaborole-containing anti-fungicidal composition” (The Penn State Research Foundation, priority 2015, dated 2017).
≈ marks a conversion by molar mass, not a printed value. Like-named read-outs stand apart in the source and are kept apart here.

How the values were obtained:
Assay type in all cases: cell-based
Botrytis cinerea 10-1728 = assay: Broth microdilution MIC of individual antifungals; conditions: 101728; Botrytis cinerea 10-1728; individual antifungal, 25% PDB, about 25° C., 72 hours; range over N independent triplicate studies; read-out: Independent MIC
[1] = system: Fusarium solani f. sp. pisi (MP VI); assay: Broth microdilution MIC of individual antifungals; conditions: read-out: Independent MIC
Stachybotrys chartarum = assay: Broth microdilution MIC of individual antifungals; conditions: individual antifungal, 25% PDB, about 25° C., 72 hours, range over N independent triplicate studies, read-out: Independent MIC
Mucor sp. = assay: Broth microdilution MIC of individual antifungals; conditions: individual antifungal, 25% PDB, about 25° C., 72 hours, range over N independent triplicate studies
Fusarium verticillioides = assay: Broth microdilution MIC of individual antifungals; conditions: individual antifungal, 25% PDB, about 25° C., 72 hours, range over N independent triplicate studies, read-out: Independent MIC
[2] = system: Fusarium oxysporum f. sp. lycopersici; assay: Broth microdilution MIC of individual antifungals; conditions: individual antifungal, 25% PDB, about 25° C., 72 hours, range over N independent triplicate studies
Aspergillus flavus = assay: Broth microdilution MIC of individual antifungals; conditions: read-out: Independent MIC
[3] = system: Mycosphaerella zeae-maydis; assay: Broth microdilution MIC of individual antifungals; conditions: Didymella maydis, individual antifungal, 25% PDB, about 25° C., 72 hours, range over N independent triplicate studies
Aureobasidium pullulans = assay: Broth microdilution MIC of individual antifungals; conditions: individual antifungal, 25% PDB, about 25° C., 72 hours, range over N independent triplicate studies, read-out: Independent MIC
Fusarium oxysporum ST33 = assay: Broth microdilution MIC of individual antifungals; conditions: individual antifungal, 25% PDB, about 25° C., 72 hours, range over N independent triplicate studies
Aspergillus niger = assay: Broth microdilution MIC of individual antifungals; conditions: read-out: Independent MIC
Alternaria solani = assay: Broth microdilution MIC of individual antifungals; conditions: individual antifungal, 25% PDB, about 25° C., 72 hours, range over N independent triplicate studies, read-out: Independent MIC
Sclerotinia homoeocarpa = assay: Broth microdilution MIC of individual antifungals; conditions: Clarireedia homoeocarpa; Sclerotinia homoeocarpa; individual antifungal, 25% PDB, about 25° C., 72 hours; range over N independent triplicate studies; read-out: Independent MIC
[4] = system: two dozen different fungal organisms; assay: Broth microdilution MIC, summary over the organisms examined
Procedure: All antifungal susceptibility assays were conducted in triplicate and N independent times. Thus, the inhibition studies were conducted a total of 3·N times. […] Thus, each synergy assay (combination of two antifungals) was conducted in conjunction with independent MIC determination. FICI values were calculated by comparing the inhibition activity of the combination (benzoxaborole+another antifungal) against the efficacy of the individual antifungal within the same experiment (using the same experimental conditions).
The studies were performed in flat bottom, 96-well microtiter plates (Greiner Bio-One).
Plates sealed with clear polyester film (VWR) were incubated at a temperature of about 25° C. The progress of fungal growth was monitored at 48 hours, 72 hours, 7 days, and 15 days. […] In order to establish appropriate comparison between the different fungi, the FICI (thus, the MICs used) determination was done at 72 hours for all cases discussed herein.
The MICs of the individual antifungals (MICBoron and MICA) and in combination (MICBA) were determined after 72 hours of incubation. […] MICA is defined as the MIC value of every other individual non-benzoxaborole-based antifungal. MICBA is defined as the MIC value when the benzoxaborole antifungal is combined with another non-benzoxaborole antifungal. […] The combination studies were performed in triplicate in flat bottom 96-well microtiter plates with a final media volume of 0.2 mL/well.

Aspergillus fumigatus = assay: Broth microdilution MIC of individual antifungals; conditions: individual antifungal, 25% PDB, about 25° C., 72 hours, range over N independent triplicate studies, read-out: Independent MIC
Rhizopus sp. = assay: Broth microdilution MIC of individual antifungals; conditions: read-out: Independent MIC
Botrytis cinerea B17 = assay: Broth microdilution MIC of individual antifungals; conditions: Botrytis cinerea B17; individual antifungal, 25% PDB, about 25° C., 72 hours; range over N independent triplicate studies; read-out: Independent MIC
Penicillium chrysogenum = assay: Broth microdilution MIC of individual antifungals; conditions: read-out: Independent MIC
Rhizoctonia solani = assay: Broth microdilution MIC of individual antifungals; conditions: read-out: Independent MIC
[5] = system: Colletotrichum orbiculare; assay: Broth microdilution MIC of individual antifungals; conditions: read-out: Independent MIC
Candida albicans = assay: Broth microdilution MIC of individual antifungals; conditions: read-out: Independent MIC
Fusarium graminearum = assay: microbe, parasite or virus in culture; conditions: Fusarium graminearum, 72 h, read-out: Independent MIC
Phytophthora pini = assay: Broth microdilution MIC of individual antifungals; conditions: individual antifungal, 25% PDB, about 25° C., 72 hours, range over N independent triplicate studies
Magnaporthe grisea = assay: microbe, parasite or virus in culture; conditions: Pyricularia oryzae, 72 h, read-out: Independent MIC
Pythium aphanodermatum = assay: Broth microdilution MIC of individual antifungals; conditions: individual antifungal, 25% PDB, about 25° C., 72 hours, range over N independent triplicate studies
[6] = Fusarium solani f. sp. pisi (MP VI), individual antifungal, 25% PDB, about 25° C., 72 hours, range over N independent triplicate studies
[7] = individual antifungal, 25% PDB, about 25° C., 72 hours, range over N independent triplicate studies
[8] = by itself, against the organisms examined (Table 1), regularly
[9] = Rhizopus, 72 h, Rhizopus sp., individual antifungal, 25% PDB, about 25° C., 72 hours, range over N independent triplicate studies
[10] = against many species tested here

SMILES | MIC (Botrytis cinerea 10-1728) [µg/mL] | MIC [1, 6] [µg/mL] | MIC (Stachybotrys chartarum) [µg/mL] | MIC (Mucor sp.) [µg/mL] | MIC (Fusarium verticillioides) [µg/mL] | MIC [2] [µg/mL] | MIC (Aspergillus flavus; [7]) [µg/mL] | MIC [3] [µg/mL] | MIC (Aureobasidium pullulans) [µg/mL] | MIC (Fusarium oxysporum ST33) [µg/mL] | MIC (Aspergillus niger; [7]) [µg/mL] | MIC (Alternaria solani) [µg/mL] | MIC (Sclerotinia homoeocarpa) [µg/mL] | MIC (Aspergillus fumigatus) [µg/mL] | MIC (Rhizopus sp.; [9]) [µg/mL] | MIC (Botrytis cinerea B17) [µg/mL] | MIC [5, 7] [µg/mL] | MIC (Fusarium graminearum) [µg/mL] | MIC (Phytophthora pini) [µg/mL] | MIC (Magnaporthe grisea) [µg/mL] | also measured
Cc1ccc2c(c1)COB2O [B1, 5-Methyl-1,3-dihydro-2,1-benzoxaborol-1-ol] | 2 | 2 | 0.5 | 1 | 0.5 | 1 | 2 | 16 | 1 | 1 | 2 | 1 | 1 | 0.25 | 16 | 2 |  |  |  |  | MIC [4, 8]: ≤ 4 µg/mL
S=C(S)NCCNC(=S)S [Zineb, zineb] | 3 to 3.12 | 6.25 to 12.5 |  |  | 3.12 to 6.25 |  |  | 1.56 to 2 |  |  |  | 6.25 to 12.5 | 6.25 to 12.5 | 0.78 to 1.56 |  |  | 3.13 to 6.25 | 1.56 (≈ 7.34 µM) | 25 | 0.78 to 1.56 (≈ 3.67 to 7.34 µM) | MIC (Penicillium chrysogenum; 72 h): 1.56 to 6.25 µg/mL; MIC (Rhizoctonia solani; 72 h): 3.12 µg/mL; MIC (Aspergillus flavus; 72 h): 1 to 1.56 µg/mL; MIC (Candida albicans; 72 h): 3.12 µg/mL; MIC [4, 10]: > 25 µg/mL; MIC (Rhizopus sp.; Rhizopus sp., individual antifungal, 25% PDB, about 25° C., 72 hours, range over N independent triplicate studies): 12.5 µg/mL
CNC(=S)S [Metam Sodium, Metam sodium] | 50 to 200 |  |  | 50 | 25 |  |  | 6 to 6.25 |  |  |  | 12.5 to 15 | 6.25 | 25 |  |  |  | 12.5 to 25 | 50 |  | MIC ([1]; Fusarium solani, 72 h): 25 to 50 µg/mL; MIC (Penicillium chrysogenum; 72 h): 50 µg/mL; MIC (Rhizoctonia solani; [7]): 25 to 50 µg/mL; MIC ([5]; 72 h): 12.5 to 25 µg/mL; MIC (Aspergillus flavus; 72 h): 25 µg/mL; MIC (Candida albicans; 72 h): 25 µg/mL; MIC (Aspergillus niger; 72 h): 50 µg/mL; MIC [4, 10]: > 25 µg/mL; MIC (Rhizopus sp.; Rhizopus, 72 h): 100 µg/mL
OB1OCc2cc(F)ccc21 [B90, 5-Fluoro-1,3-dihydro-2,1-benzoxaborol-1-ol] | 0.25 to 0.5 | 0.5 to 1 | 0.25 to 0.5 | 0.25 | 0.25 to 0.4 | 0.25 to 0.5 | 0.5 to 1 | 1 to 8 | 0.25 to 0.5 | 0.25 to 0.5 | 0.25 to 1 | 0.25 to 0.5 | 0.25 to 1 | 0.063 to 0.125 | 1 to 2 | 0.5 to 2 | 0.78 to 1.56 | 0.5 to 2 (≈ 3.29 to 13.2 µM) |  | 1.25 to 2 (≈ 8.23 to 13.2 µM) | MIC (Pythium aphanodermatum): 2 to 4 µg/mL; MIC (Penicillium chrysogenum; [7]): 0.19 to 0.39 µg/mL; MIC (Rhizoctonia solani; [7]): 1.56 to 8 µg/mL; MIC (Candida albicans; [7]): 0.5 µg/mL; MIC [4, 8]: ≤ 4 µg/mL
O=C1C2CC=CCC2C(=O)N1SC(Cl)(Cl)Cl (stereo not shown) [Captan, captan] | 0.94 to 1.56 | 3 to 3.12 | 0.39 to 0.5 | 3.12 to 12.5 | 1 to 2 | 1.56 to 4 | 12.5 to 25 | 1 to 1.56 | 0.375 to 0.78 | 1 to 2 | 12.5 to 16 | 1.5 to 3.12 | 2 to 4 | 6.25 to 12.5 | 12.5 to 40 | 1.88 to 4 | 0.39 to 0.78 | 0.78 to 0.8 (≈ 2.59 to 2.66 µM) | 0.39 | 0.19 to 0.2 (≈ 0.632 to 0.665 µM) | MIC (Pythium aphanodermatum): 28 µg/mL; MIC (Penicillium chrysogenum; [7]): 0.75 to 0.78 µg/mL; MIC [4, 10]: > 25 µg/mL
OB1OCc2cc(Cl)ccc21 [B18, 5-chloro-1,3-dihydro-2,1-benzoxaborol-1-ol] | 0.5 to 2 | 0.5 | 0.25 to 1 | 0.5 to 1 | 0.25 to 0.5 | 0.25 | 0.5 to 1 | 4 to 8 | 0.125 | 0.5 | 0.5 to 2 | 0.5 | 1 to 4 | 0.125 to 0.25 | 0.5 to 2 | 0.5 | 0.78 | 1 (≈ 5.94 µM) | 0.125 | 0.39 to 1.56 (≈ 2.32 to 9.26 µM) | MIC (Pythium aphanodermatum): 0.25 to 2 µg/mL; MIC (Penicillium chrysogenum; [7]): 0.19 to 0.38 µg/mL; MIC (Rhizoctonia solani; [7]): 1.56 to 8 µg/mL; MIC (Candida albicans; [7]): 0.5 to 1 µg/mL; MIC [4, 8]: ≤ 4 µg/mL
